Measurements taken from ChEMBL document CHEMBL6087436, “The novel β-hairpin antimicrobial peptide D-G(RF)3 demonstrates exceptional antibacterial efficacy” (Eur J Med Chem, 2025).
≈ marks a conversion by molar mass, not a printed value. Calls of active or inactive are those of the source. The rule behind the calls is not given here. Where a SMILES comes first, the peptide text is derived from it. Bridges are numbered along the chain shown (N, C = ends). [ ]: non-standard residue; d: D form. The star is where a group is joined. X1 = CC[C@H](C)CCCCC(=O)*; dDab = NCC[C@@H](N)C(=O)O; Dab = NCC[C@H](N)C(=O)O

How the values were obtained:
Staphylococcus aureus [1] = assay: Antibacterial activity against Staphylococcus aureus ATCC 25923 assessed as inhibition of bacterial growth incubated for 18 hrs by microbroth dilution assay; type: functional
Bacillus subtilis = assay: Antibacterial activity against Bacillus subtilis ATCC 23857 assessed as inhibition of bacterial growth incubated for 18 hrs by microbroth dilution assay; type: functional
[2] = tested on: Staphylococcus epidermidis; assay: Antibacterial activity against Staphylococcus epidermidis ATCC 12228 assessed as inhibition of bacterial growth incubated for 18 hrs by microbroth dilution assay; type: functional
Klebsiella pneumoniae [3] = assay: Antibacterial activity against Klebsiella pneumoniae ATCC 700603 assessed as inhibition of bacterial growth incubated for 18 hrs by microbroth dilution assay; type: functional
Escherichia coli [4] = assay: Antibacterial activity against Escherichia coli ATCC 25922 assessed as inhibition of bacterial growth incubated for 18 hrs by microbroth dilution assay; type: functional
Pseudomonas aeruginosa [5] = assay: Antibacterial activity against Pseudomonas aeruginosa ATCC 27853 assessed as inhibition of bacterial growth incubated for 18 hrs by microbroth dilution assay; type: functional
Pseudomonas aeruginosa [6] = assay: Induction of drug resistance in Pseudomonas aeruginosa ATCC 27853 assessed as fold increase in MIC incubated for 24 hrs and measured under 40 passages; type: functional
Cell membrane [7] = assay: Induction of cell membrane permeability in Staphylococcus aureus assessed as bacterial dissolve at 2 times MIC by SEM analysis; type: subcellular
Staphylococcus aureus [8] = assay: Inhibition of biofilm formation in Staphylococcus aureus ATCC 25923 incubated for 24 hrs by crystal violet staining based analysis; type: functional, organism-based; details: dose 1-32 µM
Escherichia coli [9] = assay: Inhibition of biofilm formation in Escherichia coli ATCC 25922 incubated for 24 hrs by crystal violet staining based analysis; type: functional, organism-based; details: dose 1-32 µM
Klebsiella pneumoniae [10] = assay: Inhibition of biofilm formation in Klebsiella pneumoniae ATCC 700603 incubated for 24 hrs by crystal violet staining based analysis; type: functional, organism-based; details: dose 1-32 µM
Pseudomonas aeruginosa [11] = assay: Inhibition of biofilm formation in Pseudomonas aeruginosa ATCC 27853 incubated for 24 hrs by crystal violet staining based analysis; type: functional, organism-based; details: dose 1-32 µM
Escherichia coli [12] = assay: Inhibition of biofilm formation in Escherichia coli ATCC 25922 at >= 2 uM incubated for 24 hrs by crystal violet staining based analysis; type: functional, organism-based
Escherichia coli [13] = assay: Inhibition of biofilm formation in Escherichia coli ATCC 25922 at 1 uM incubated for 24 hrs by crystal violet staining based analysis; type: functional, organism-based
Klebsiella pneumoniae [14] = assay: Inhibition of biofilm formation in Klebsiella pneumoniae ATCC 700603 at 1 uM incubated for 24 hrs by crystal violet staining based analysis; type: functional, organism-based
Cell membrane [15] = assay: Induction of cell membrane permeability in Escherichia coli assessed as rough convex surface at 2 times MIC by SEM analysis; type: subcellular
Escherichia coli [16] = assay: Antimicrobial activity against Escherichia coli at 2 times MIC in presence of LPS preincubated for 1 hr followed by bacterial addition and measured after 6 hrs by LPS competitive inhibition assay; type: functional, organism-based
Cell membrane [17] = assay: Induction of Outer membrane permeabilization in Escherichia coli at 8 uM by NPN-dye based fluorescence analysis; type: subcellular
Klebsiella pneumoniae [18] = assay: In vivo antibacterial activity against Klebsiella pneumoniae ATCC 700603 infected in male Balb/c mouse lung infection model assessed as reduction in alveoli expansion at 10 mg/kg, ip measured after 24 hrs by H and E staining based analysis; type: functional, organism-based
Klebsiella pneumoniae [19] = assay: In vivo antibacterial activity against Klebsiella pneumoniae ATCC 700603 infected in male Balb/c mouse lung infection model assessed as reduction in serous exudation of alveolar cavities at 10 mg/kg, ip measured after 24 hrs by H and E staining based analysis; type: functional, organism-based
Klebsiella pneumoniae [20] = assay: In vivo antibacterial activity against Klebsiella pneumoniae ATCC 700603 infected in male Balb/c mouse lung infection model assessed as reduction in crumpling alveoli at 10 mg/kg, ip measured after 24 hrs by H and E staining based analysis; type: functional, organism-based
Klebsiella pneumoniae [21] = assay: In vivo antibacterial activity against Klebsiella pneumoniae ATCC 700603 infected in male Balb/c mouse lung infection model assessed as increase on compensatory dilation at 5 mg/kg, ip and measured after 24 hrs; type: functional, organism-based
[22] = Retention time of the compound by RP-HPLC analysis; type: physicochemical
[23] = Hemolytic activity in Kunming mouse erythrocytes assessed as hemolysis incubated for 1 hr by multimode reader analysis; type: toxicity, cell-based; details: erythrocyte
[24] = Hemolytic activity in Kunming mouse erythrocytes assessed as hemolytic rate at 256 uM incubated for 1 hr by multimode reader analysis relative to control; type: toxicity, cell-based, Erythrocyte; details: read-out: Activity
Cell membrane [25] = assay: Induction of Cytoplasmic membrane depolarization in Staphylococcus aureus at 3.75 uM measured for every 10 mins by DiSC3(5) dye based fluorescence method

| Structure (SMILES) | MIC (Staphylococcus aureus [1]) | MIC (Bacillus subtilis) | MIC [2] | MIC (Klebsiella pneumoniae [3]) | MIC (Escherichia coli [4]) | MIC (Pseudomonas aeruginosa [5]) | Retention_time [22] | MHC10 [23] | also measured |
| --- | --- | --- | --- | --- | --- | --- | --- | --- | --- |
| O=C(O)c1cn(C2CC2)c2cc(N3CCNCC3)c(F)cc2c1=O [CIPROFLOXACIN] | 8 µM (≈ 2.65 µg/mL) | 2 µM (≈ 0.663 µg/mL) | 8 µM (≈ 2.65 µg/mL) | 8 µM (≈ 2.65 µg/mL) | < 1 µM | 2 µM (≈ 0.663 µg/mL) |  |  | fold change (FC) (Pseudomonas aeruginosa [6]): >128; Activity (Cell membrane [7]): Active |
| CC(C)CCCCC(=O)N[C@@H](CCN)C(=O)N[C@H](C(=O)N[C@@H](CCN)C(=O)N[C@H]1CCNC(=O)[C@H]([C@@H](C)O)NC(=O)[C@H](CCN)NC(=O)[C@H](CCN)NC(=O)[C@H](CC(C)C)NC(=O)[C@@H](Cc2ccccc2)NC(=O)[C@@H](CCN)NC1=O)[C@@H](C)O.CC[C@H](C)CCCCC(=O)N[C@@H](CCN)C(=O)N[C@H](C(=O)N[C@@H](CCN)C(=O)N[C@H]1CCNC(=O)[C@H]([C@@H](C)O)NC(=O)[C@H](CCN)NC(=O)[C@H](CCN)NC(=O)[C@H](CC(C)C)NC(=O)[C@@H](Cc2ccccc2)NC(=O)[C@@H](CCN)NC1=O)[C@@H](C)O (X1-[Dab]T[Dab][Dab][dDab][dF]L[Dab][Dab]T; lactam 4-C) |  |  |  |  |  |  |  |  | inhibition (Staphylococcus aureus [8]): Dose-dependent-effect; inhibition (Escherichia coli [9]): Dose-dependent-effect; inhibition (Klebsiella pneumoniae [10]): Dose-dependent-effect; inhibition (Pseudomonas aeruginosa [11]): Dose-dependent-effect; inhibition (Escherichia coli [12]): Active; inhibition (Escherichia coli [13]): Active; inhibition (Klebsiella pneumoniae [14]): Active; Activity (Cell membrane [15]): Active; Activity (Escherichia coli [16]): inactive; Activity (Cell membrane [17]): Active; Activity (Klebsiella pneumoniae [18]): Active; Activity (Klebsiella pneumoniae [19]): Active; Activity (Klebsiella pneumoniae [20]): Active; Activity (Klebsiella pneumoniae [21]): Active |
| NCCCC[C@H](NC(=O)[C@H](Cc1c[nH]c2ccccc12)NC(=O)[C@H](CCCCN)NC(=O)[C@H](Cc1c[nH]c2ccccc12)NC(=O)[C@H](CCCCN)NC(=O)CNC(=O)[C@H]1CCCN1C(=O)[C@H](CCCCN)NC(=O)[C@H](Cc1c[nH]c2ccccc12)NC(=O)[C@H](CCCCN)NC(=O)[C@H](Cc1c[nH]c2ccccc12)NC(=O)[C@@H](N)CCCCN)C(N)=O | 32 µM (≈ 53.9 µg/mL) | 2 µM (≈ 3.37 µg/mL) | 4 µM (≈ 6.74 µg/mL) | 64 µM (≈ 108 µg/mL) | 16 µM (≈ 27 µg/mL) | 32 µM (≈ 53.9 µg/mL) | 12.66 min | > 256 µM |  |
| CC[C@H](C)[C@H](N)C(=O)N[C@@H](CCCNC(=N)N)C(=O)N[C@H](C(=O)N[C@@H](CCCNC(=N)N)C(=O)N[C@H](C(=O)N[C@@H](CCCNC(=N)N)C(=O)N1CCC[C@@H]1C(=O)NCC(=O)N[C@@H](CCCNC(=N)N)C(=O)N[C@H](C(=O)N[C@@H](CCCNC(=N)N)C(=O)N[C@H](C(=O)N[C@@H](CCCNC(=N)N)C(=O)N[C@H](C(N)=O)[C@@H](C)CC)[C@@H](C)CC)[C@@H](C)CC)[C@@H](C)CC)[C@@H](C)CC | 8 µM (≈ 14.3 µg/mL) | 2 µM (≈ 3.57 µg/mL) | 8 µM (≈ 14.3 µg/mL) | 16 µM (≈ 28.6 µg/mL) | 16 µM (≈ 28.6 µg/mL) | 4 µM (≈ 7.15 µg/mL) | 13.442 min | 512 µM | hemolysis at 1 h, 256 µM [24]: 4.1% |
| CC[C@H](C)[C@H](N)C(=O)N[C@@H](CCCNC(=N)N)C(=O)N[C@H](C(=O)N[C@@H](CCCNC(=N)N)C(=O)N1CCC[C@@H]1C(=O)NCC(=O)N[C@@H](CCCNC(=N)N)C(=O)N[C@H](C(=O)N[C@@H](CCCNC(=N)N)C(=O)N[C@H](C(N)=O)[C@@H](C)CC)[C@@H](C)CC)[C@@H](C)CC | 128 µM (≈ 160 µg/mL) | 32 µM (≈ 40 µg/mL) | 64 µM (≈ 79.9 µg/mL) | > 128 µM | 128 µM (≈ 160 µg/mL) | 128 µM (≈ 160 µg/mL) | 12.103 min | > 256 µM |  |
| NCCCC[C@H](NC(=O)CNC(=O)[C@H]1CCCN1C(=O)[C@H](CCCCN)NC(=O)[C@H](Cc1c[nH]c2ccccc12)NC(=O)[C@H](CCCCN)NC(=O)[C@H](Cc1c[nH]c2ccccc12)NC(=O)[C@H](CCCCN)NC(=O)[C@@H](N)Cc1c[nH]c2ccccc12)C(=O)N[C@@H](Cc1c[nH]c2ccccc12)C(=O)N[C@@H](CCCCN)C(=O)N[C@@H](Cc1c[nH]c2ccccc12)C(=O)N[C@@H](CCCCN)C(=O)N[C@@H](Cc1c[nH]c2ccccc12)C(N)=O (H-WKWKWK[dP]GKWKWKW-NH2) | 8 µM (≈ 16.5 µg/mL) | 2 µM (≈ 4.12 µg/mL) | 4 µM (≈ 8.23 µg/mL) | 16 µM (≈ 32.9 µg/mL) | 8 µM (≈ 16.5 µg/mL) | 4 µM (≈ 8.23 µg/mL) | 14.49 min | > 256 µM |  |
| CC(C)[C@@H]1NC(=O)[C@H](C)OC(=O)[C@@H](C(C)C)NC(=O)[C@@H](C(C)C)OC(=O)[C@H](C(C)C)NC(=O)[C@H](C)OC(=O)[C@@H](C(C)C)NC(=O)[C@@H](C(C)C)OC(=O)[C@H](C(C)C)NC(=O)[C@H](C)OC(=O)[C@@H](C(C)C)NC(=O)[C@@H](C(C)C)OC1=O |  |  |  |  |  |  |  |  | Activity (Cell membrane [25]): Active |
| NCCCC[C@H](NC(=O)CNC(=O)[C@H]1CCCN1C(=O)[C@H](CCCCN)NC(=O)[C@H](Cc1c[nH]c2ccccc12)NC(=O)[C@H](CCCCN)NC(=O)[C@@H](N)Cc1c[nH]c2ccccc12)C(=O)N[C@@H](Cc1c[nH]c2ccccc12)C(=O)N[C@@H](CCCCN)C(=O)N[C@@H](Cc1c[nH]c2ccccc12)C(N)=O (H-WKWK[dP]GKWKW-NH2) | 64 µM (≈ 91.4 µg/mL) | 8 µM (≈ 11.4 µg/mL) | 8 µM (≈ 11.4 µg/mL) | > 128 µM | 64 µM (≈ 91.4 µg/mL) | 8 µM (≈ 11.4 µg/mL) | 13.817 min | > 256 µM |  |
